Results on ten molecules are retold here after PubChem BioAssay (NCI).

Values joined by “and” are separate entries in the source; they are usually repeats but may differ in a detail not shown here. Identical values can stand only once.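 1) Cells in 96-well plates. 2) Compound, 48 h, 5 concentrations. 3) Linear interpolation between surrounding doses. 4) Unreached endpoint = highest concentration. GI50 is the concentration that inhibits growth by half. Definition used: TGI = concentration required for complete inhibition of growth.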 Where only a bound is given, the exact number is not on record here.

Some test systems named below: A549 NSCLC; NCI-H226 lung; M14 melanoma; SK-MEL-2 melanoma; HCT-15 colon; NCI-H23 lung; HT29 colon; K-562 leukemia; IGROV1 ovarian; RPMI-8226 leukemia.
Common to all, as to test: NCI-60 cell line screen, 48 h

For the molecule `N#CC1=C(N)NC(N2CCOCC2)=NC12Nc1ccccc1O2` (configuration not stated), the GI50 in the assay on A549 NSCLC is 70 µM; in the assay with NCI-H226 lung it was 98.7 µM; in the assay on M14 melanoma, 39.6 µM; in the assay on SK-MEL-2 melanoma, 39.7 µM; in the assay on HCT-15 colon it was 38.2 µM; in the assay on NCI-H23 lung, 29.5 µM. In addition, the GI50 is 47.2 µM in the assay on HT29 colon, 39.2 µM with K-562 leukemia, 9.47 µM in the assay with IGROV1 ovarian and 15.4 µM in the assay with RPMI-8226 leukemia. The TGI in the assay with A549 NSCLC, with NCI-H226 lung, with M14 melanoma, with SK-MEL-2 melanoma, with HCT-15 colon and with NCI-H23 lung was greater than 100 µM in each case. Besides, the TGI was greater than 100 µM with HT29 colon, greater than 100 µM with K-562 leukemia, 57.5 µM with IGROV1 ovarian and 61.3 µM with RPMI-8226 leukemia.

In the case of `CCCCCCCCCCCNC=O`, the TGI is greater than 100 µM with A549 NSCLC; greater than 100 µM in the assay with NCI-H226 lung; greater than 100 µM in the assay with M14 melanoma; 66.1 µM with SK-MEL-2 melanoma; 71.8 µM in the assay with HCT-15 colon; greater than 100 µM with NCI-H23 lung. Besides, the TGI with HT29 colon was greater than 100 µM; with K-562 leukemia, 86.1 µM; in the assay with IGROV1 ovarian, greater than 100 µM; with RPMI-8226 leukemia it was 78.7 µM.

Take `CCOC(=O)c1c(-c2ccccc2)[n+](=O)c2cc(F)c(F)cc2n1[O-]`: the GI50 in the assay on A549 NSCLC is 2.14 µM; in the assay with NCI-H226 lung, 2.73 µM; with M14 melanoma it was 1.11 µM; with SK-MEL-2 melanoma, 3.47 µM; with HCT-15 colon, 0.215 µM; in the assay on NCI-H23 lung it was 1.42 µM. In addition, the GI50 with HT29 colon is 1.51 µM; in the assay with K-562 leukemia it was 0.702 µM; in the assay with IGROV1 ovarian, 0.701 µM; in the assay with RPMI-8226 leukemia, 1.02 µM. Besides, the TGI with A549 NSCLC was 4.46 µM; in the assay on NCI-H226 lung, 6.92 µM; with M14 melanoma, 2.34 µM; in the assay on SK-MEL-2 melanoma, greater than 100 µM; in the assay with HCT-15 colon it was 0.441 µM; in the assay on NCI-H23 lung, 3.13 µM. For the same molecule, the TGI is 3.27 µM in the assay with HT29 colon, greater than 100 µM with K-562 leukemia, greater than 100 µM in the assay on IGROV1 ovarian and 3.98 µM with RPMI-8226 leukemia.

Consider `COc1cc(/C=C/C(=O)CC(=O)/C=C/c2cc(OC)c(O)c(OC)c2)cc(OC)c1O`, for which the GI50 in the assay on A549 NSCLC is 16.6 µM; with NCI-H226 lung it was 53.6 µM; with M14 melanoma, 10.4 µM; with SK-MEL-2 melanoma, 4.24 µM; in the assay on NCI-H23 lung, 12.7 µM; in the assay with HT29 colon, 26.3 µM. Besides, in the assay with IGROV1 ovarian, the GI50 is 11 µM. In addition, the TGI in the assay on A549 NSCLC is 25 µM and > 100 µM; in the assay with NCI-H226 lung, 25 µM and > 100 µM; with M14 melanoma, 25 µM and 28 µM; with SK-MEL-2 melanoma, 16.3 µM and 16.6 µM; in the assay on HCT-15 colon it was > 25 µM and 90.4 µM; in the assay with NCI-H23 lung, 25 µM and 35.7 µM. Besides, the TGI in the assay with HT29 colon is 25 µM and > 100 µM; in the assay with K-562 leukemia it was 25 µM and > 100 µM; in the assay with IGROV1 ovarian it was 10.8 µM and 32.2 µM; with RPMI-8226 leukemia it was 30.8 µM.

In the case of `COC(=O)CC1(O)C=CC(=O)C=C1`, the TGI with A549 NSCLC came out at 39.4 µM; in the assay on NCI-H226 lung, 26.8 µM; with M14 melanoma, 16.6 µM; with SK-MEL-2 melanoma, 14.6 µM; in the assay on HCT-15 colon, 8.76 µM; with NCI-H23 lung it was 10.9 µM. In addition, the TGI in the assay with HT29 colon is 17.6 µM; in the assay with K-562 leukemia, greater than 100 µM; in the assay with IGROV1 ovarian, 5.04 µM; with RPMI-8226 leukemia, 31.4 µM.

As for `COC(=O)C(=O)C(C(=O)C(=O)Nc1ccccc1[N+](=O)[O-])c1nc2ccc([N+](=O)[O-])cc2[nH]c1=O` (configuration not stated), the TGI in the assay with A549 NSCLC, in the assay on NCI-H226 lung, in the assay on M14 melanoma, in the assay on SK-MEL-2 melanoma, in the assay on HCT-15 colon and in the assay on NCI-H23 lung was greater than 100 µM in each case. In addition, the TGI in the assay with HT29 colon, in the assay with K-562 leukemia, with IGROV1 ovarian and in the assay with RPMI-8226 leukemia was greater than 100 µM in each case.

Consider `CCCC(O)c1cn(-c2cccc(S(=O)(=O)O)c2)nn1` (configuration not stated), for which the TGI with A549 NSCLC, in the assay on NCI-H226 lung, in the assay with M14 melanoma, with SK-MEL-2 melanoma, with HCT-15 colon and in the assay on NCI-H23 lung was greater than 100 µM in each case. Also, the TGI in the assay with HT29 colon, in the assay with K-562 leukemia, in the assay on IGROV1 ovarian and in the assay on RPMI-8226 leukemia was greater than 100 µM in each case.

Regarding `COc1ccc(-c2cc3ccccc3[nH]c2=O)cc1OC`, the TGI in the assay on A549 NSCLC, in the assay on NCI-H226 lung, in the assay with M14 melanoma, in the assay with SK-MEL-2 melanoma, with HCT-15 colon and in the assay on NCI-H23 lung was greater than 100 µM each time. Besides, the TGI in the assay with HT29 colon, in the assay on K-562 leukemia, in the assay on IGROV1 ovarian and in the assay with RPMI-8226 leukemia was greater than 100 µM in each case.

For `CS(=O)(=O)c1ccc(COP(N)(=O)N(CCCl)CCCl)cc1` (configuration not stated), the TGI with A549 NSCLC, in the assay with NCI-H226 lung, in the assay with M14 melanoma, with SK-MEL-2 melanoma, with HCT-15 colon and in the assay with NCI-H23 lung was greater than 100 µM in each case. In addition, the TGI in the assay on HT29 colon, in the assay with K-562 leukemia, in the assay with IGROV1 ovarian and in the assay on RPMI-8226 leukemia was greater than 100 µM each time.

For `FC(F)c1ncc(-c2ccc(C(F)(F)F)cc2)c(NC2CCCCCC2)n1`, the GI50 in the assay on A549 NSCLC, with NCI-H226 lung, in the assay with M14 melanoma, in the assay with SK-MEL-2 melanoma, in the assay with HCT-15 colon and with NCI-H23 lung was greater than 10 µM in each case. Also, the GI50 in the assay on HT29 colon, with K-562 leukemia, in the assay on IGROV1 ovarian and with RPMI-8226 leukemia was greater than 10 µM each time. For the same molecule, the TGI with A549 NSCLC, with NCI-H226 lung, in the assay with M14 melanoma, with SK-MEL-2 melanoma, in the assay with HCT-15 colon and in the assay with NCI-H23 lung was greater than 10 µM in each case. Further, the TGI in the assay with HT29 colon, with K-562 leukemia, in the assay on IGROV1 ovarian and with RPMI-8226 leukemia was greater than 10 µM throughout.
